Measured values published in US20240307351A1, “AGENT FOR ANTI-AGING OR FOR CELLULAR REJUVENATION” (TOHOKU UNIVERSITY, priority 2022, published 2024).

Experiments:
[1] = Liver function markers in blood of C57BL6 mice; format: in vivo, mouse; conditions: C57BL6 mice (8 weeks old), oral, 50 or 150 mg/kg/day, 7 days, vs DMSO corn oil
Experimental: Compound #4 of DMSO corn oil was orally administered to C57BL6 mice (8 weeks old) at a dose of 50 mg/kg/day per kg of mouse weight for 7 days ([Group L]).
In addition, Compound #4 of DMSO corn oil was orally administered to C57BL6 mice (8 weeks old) at a dose of 150 mg/kg/day per kg of mouse weight for 7 days ([Group H]).
Further, DMSO corn oil was orally administered to C57BL6 mice (8 weeks old) for 7 days ([Control group]).

SIRTI protein = assay: Amount of SIRT1 protein in RH30 cells by Western blotting; format: cell-based, human; conditions: 30 μM, 24 hours, compared with Control group (DMSO)
Experimental: RH30 cells (human rhabdomyosarcoma cell line; gli gene expression+, N-myc gene expression+) at 1×10^6 cell/dish were seeded and cultured in a dish containing 10 mL of a culture solution (low-glucose-containing DMEM medium (glucose concentration of 1.0 g/dL) to which 10 wt. % of FBS was added). One day later, Compound #5 was added to have a concentration of 30 μM, and the mixture was cultured for 24 hours ([Compound #5 addition group]). Compound #9, Compound #13, Compound #21, Compound #30, or Compound #35 as the present compound was added in place of Compound #5, and the mixture was cultured in the same manner, respectively, as [Compound #9 addition group], [Compound #13 addition group], [Compound #21 addition group], [Compound #30 addition group], and […].
On the other hand, as a control, DMSO (dimethyl sulfoxide) was added to have a concentration of 0.2 wt. %, and the mixture was cultured for 24 hours ([Control group]).
After completion of culture, the cells were recovered, disrupted by a typical method, and the amount of each of the proteins (SIRTI proteins, etc.) in the cells was detected by Western blotting. Further, the results of quantification of each band in the detection results of the Western blotting in FIG. 6 through normalization with the band of β-actin as a loading control are shown in FIG. 7.

| SMILES | GOT in blood [1] | GPT in blood [1] | amount of SIRTI protein in cells (SIRTI protein) |
| --- | --- | --- | --- |
| O=C(CC(C(=O)O)c1c[nH]c2ccccc12)c1ccc(F)cc1 (centres unmarked) [Compound #4] | decreased | decreased | – |
| CC(C)(C)OC(=O)NCCCCCCC(C)(C(=O)O)c1c[nH]c2ccccc12 (centres unmarked) [Compound #13] | – | – | increased |
| CC(=O)N1CCC(CC(C(=O)O)c2c[nH]c3ccccc23)CC1 (centres unmarked) [Compound #9] | – | – | increased |
| CCCCCCn1cc(CC(=O)O)c2ccccc21 [Compound #30] | – | – | increased |
